# According to PMC11510666, “Thiazolidinedione-Conjugated Lupeol Derivatives as Potent Anticancer Agents Through a Mitochondria-Mediated Apoptotic Pathway” (Molecules, 2024):
# Legend:
# [1] = tested on: human breast cancer MCF-7; experiment: MTT antiproliferative assay, MCF-7; format: cell-based; conditions: mean ± SD, three independent experiments
# Method: (§1) These cell lines were cultured in Dulbecco's Modified Eagle Medium containing 10% (v/v) fetal bovine serum (FBS, Wisent) and 1% (v/v) Penicillin-Streptomycin Solution mixture (Beyotime, Shanghai, China) at 37 °C under 5% CO2. An MTT assay evaluated the cytotoxicity of lupeol derivatives toward the A549, MCF-7, HepG2, and LO2 cell lines. The cells were inoculated into 96-well plates (3 × 10^3 cells/well) and cultured for 24 h at 37 °C in 5% CO2. After that, a gradient concentration of the test drug was added to continue the incubation for 48 h. Subsequently, the MTT solution continued to incubate with the cells for 4 h. Afterward, the upper waste layer was discarded, and DMSO was added ([…], Tianjin, China). After the formazan completely dissolved, the absorbance of each well at 490 nm was measured with a microplate reader. The mean values were derived from three independent experiments.
# human lung cancer A549 = experiment: MTT antiproliferative assay, A549; format: cell-based; conditions: 48 h, mean ± SD, three independent experiments
# Method: as §1
# [2] = tested on: human hepatocarcinoma HepG2; experiment: MTT antiproliferative assay, HepG2; format: cell-based; conditions: for IC50: MTT, 48 h, mean ± SD, three independent experiments; for SI (selectivity index): IC50 values on L02 cells/HepG2 cells
# Method: as §1
# human hepatic LO2 cells = conditions: read-out: IC50 LO2; MTT, 48 h, mean ± SD, three independent experiments
# Method: as §1
smiles,measurement,setting,value
"N.N.[Cl][Pt][Cl] [Cisplatin, cisplatin, reference compound]",IC50,[1]; 48 h,5.79 ± 0.49 µM
same,IC50,human lung cancer A549,4.96 ± 0.48 µM
same,IC50,[2],4.65 ± 0.54 µM
"C=C(C)C1CCC2(C)CCC3(C)C(CCC4C5(C)CCC(OC(=O)CN6C(=O)SC(=Cc7ccc(F)cc7)C6=O)C(C)(C)C5CCC43C)C12 (centres unmarked) [Compound 6a, Lupeol-3-[(1-Ethyl)-2]-5-(4-Fluorobenzylidene)-2,4-Thiazolidinedione]",IC50,human hepatic LO2 cells,92.6 ± 1.03 µM
same,IC50,[1]; 48 h,24 ± 1.87 µM
same,IC50,human lung cancer A549,17.3 ± 1.58 µM
same,SI (selectivity index),[2],4.07
same,IC50,[2],22.7 ± 1.59 µM
"C=C(C)C1CCC2(C)CCC3(C)C(CCC4C5(C)CCC(OC(=O)CN6C(=O)SC(=Cc7ccc(Cl)cc7)C6=O)C(C)(C)C5CCC43C)C12 (centres unmarked) [Compound 6b, Lupeol-3-[(1-Ethyl)-2]-5-(4-Chlorobenzylidene)-2,4-Thiazolidinedione]",IC50,human hepatic LO2 cells,70.5 ± 1.51 µM
same,IC50,[1]; 48 h,13.8 ± 0.75 µM
same,IC50,human lung cancer A549,14.2 ± 1.72 µM
same,SI (selectivity index),[2],4.25
same,IC50,[2],16.6 ± 1.38 µM
"C=C(C)C1CCC2(C)CCC3(C)C(CCC4C5(C)CCC(OC(=O)CN6C(=O)SC(=Cc7ccc(C)cc7)C6=O)C(C)(C)C5CCC43C)C12 (centres unmarked) [Compound 6c, Lupeol-3-[(1-Ethyl)-2]-5-(4-Methylbenzylidene)-2,4-Thiazolidinedione]",IC50,human hepatic LO2 cells,76.4 ± 1.22 µM
same,IC50,[1]; 48 h,22.1 ± 1.42 µM
same,IC50,human lung cancer A549,10.4 ± 0.82 µM
same,SI (selectivity index),[2],4.2
same,IC50,[2],18.2 ± 1.27 µM
"C=C(C)C1CCC2(C)CCC3(C)C(CCC4C5(C)CCC(OC(=O)CN6C(=O)SC(=Cc7ccc(C(C)(C)C)cc7)C6=O)C(C)(C)C5CCC43C)C12 (centres unmarked) [Compound 6d, Lupeol-3-[(1-Ethyl)-2]-5-(4-Tert-Butylphenyl)-2,4-Thiazolidinedione]",IC50,human hepatic LO2 cells,39.2 ± 1.07 µM
same,IC50,[1]; 48 h,15.4 ± 1.22 µM
same,IC50,human lung cancer A549,14.2 ± 1.43 µM
same,SI (selectivity index),[2],3.61
same,IC50,[2],10.9 ± 0.78 µM
"C=C(C)C1CCC2(C)CCC3(C)C(CCC4C5(C)CCC(OC(=O)CN6C(=O)SC(=Cc7ccccc7OC)C6=O)C(C)(C)C5CCC43C)C12 (centres unmarked) [Compound 6e, Lupeol-3-[(1-Ethyl)-2]-5-(2-Methoxybenzylidene)-2,4-Thiazolidinedione]",IC50,human hepatic LO2 cells,70.8 ± 0.93 µM
same,IC50,[1]; 48 h,12.5 ± 0.74 µM
same,IC50,human lung cancer A549,9.43 ± 0.74 µM
same,SI (selectivity index),[2],4.57
same,IC50,[2],15.5 ± 0.86 µM
"C=C(C)C1CCC2(C)CCC3(C)C(CCC4C5(C)CCC(OC(=O)CN6C(=O)SC(=Cc7ccc(OC)c(OC)c7OC)C6=O)C(C)(C)C5CCC43C)C12 (centres unmarked) [Compound 6f, Lupeol-3-[(1-Ethyl)-2]-5-(2,3,4-Trimethoxybenzylidene)-2,4-Thiazolidinedione]",IC50,human hepatic LO2 cells,85.3 ± 1.12 µM
same,IC50,[1]; 48 h,16.1 ± 0.89 µM
same,IC50,human lung cancer A549,10.3 ± 0.86 µM
same,SI (selectivity index),[2],4.44
same,IC50,[2],19.2 ± 1.57 µM
"C=C(C)C1CCC2(C)CCC3(C)C(CCC4C5(C)CCC(OC(=O)CN6C(=O)SC(=Cc7ccco7)C6=O)C(C)(C)C5CCC43C)C12 (centres unmarked) [Compound 6g, Lupeol-3-[(1-Ethyl)-2]-5-(2-Furanylmethylene)-2,4-Thiazolidinedione]",IC50,human hepatic LO2 cells,60.6 ± 1.84 µM
same,IC50,[1]; 48 h,12.8 ± 0.22 µM
same,IC50,human lung cancer A549,14.9 ± 1.21 µM
same,SI (selectivity index),[2],3.95
same,IC50,[2],15.3 ± 1.32 µM
"C=C(C)C1CCC2(C)CCC3(C)C(CCC4C5(C)CCC(OC(=O)CN6C(=O)SC(=Cc7cccs7)C6=O)C(C)(C)C5CCC43C)C12 (centres unmarked) [Compound 6h, Lupeol-3-[(1-Ethyl)-2]-5-(2-Thienylmethylene)-2,4-Thiazolidinedione]",IC50,human hepatic LO2 cells,58.4 ± 0.78 µM
same,IC50,[1]; 48 h,11.3 ± 0.85 µM
same,IC50,human lung cancer A549,14 ± 1.39 µM
same,SI (selectivity index),[2],4.55
same,IC50,[2],12.8 ± 0.97 µM
"C=C(C)C1CCC2(C)CCC3(C)C(CCC4C5(C)CCC(OC(=O)CN6C(=O)SC(=CC(C)C)C6=O)C(C)(C)C5CCC43C)C12 (centres unmarked) [Compound 6i, Lupeol-3-[(1-Ethyl)-2]-5-(2-Methylpropylidene)-2,4-Thiazolidinedione]",IC50,human hepatic LO2 cells,45.5 ± 1.33 µM
same,IC50,[1]; 48 h,8.7 ± 0.12 µM
same,IC50,human lung cancer A549,11.3 ± 0.91 µM
same,SI (selectivity index),[2],4.80
same,IC50,[2],9.48 ± 0.71 µM
"C=C(C)C1CCC2(C)CCC3(C)C(CCC4C5(C)CCC(OC(=O)N6CCN(C(=O)CN7C(=O)SC(=Cc8ccc(F)cc8)C7=O)CC6)C(C)(C)C5CCC43C)C12 (centres unmarked) [Compound 9a, Lupeol-3-[(1-Piperazinyl)-4]-5-(4-Fluorobenzylidene)-2,4-Thiazolidinedione]",IC50,human hepatic LO2 cells,79.1 ± 1.25 µM
same,IC50,[1]; 48 h,19.1 ± 1.78 µM
same,IC50,human lung cancer A549,18.7 ± 1.25 µM
same,SI (selectivity index),[2],3.87
same,IC50,[2],20.5 ± 1.62 µM
"C=C(C)C1CCC2(C)CCC3(C)C(CCC4C5(C)CCC(OC(=O)N6CCN(C(=O)CN7C(=O)SC(=Cc8ccc(Cl)cc8)C7=O)CC6)C(C)(C)C5CCC43C)C12 (centres unmarked) [Compound 9b, Lupeol-3-[(1-Piperazinyl)-4]-5-(4-Chlorobenzylidene)-2,4-Thiazolidinedione]",IC50,human hepatic LO2 cells,80.5 ± 1.79 µM
same,IC50,[1]; 48 h,14 ± 0.87 µM
same,IC50,human lung cancer A549,15.5 ± 0.64 µM
same,SI (selectivity index),[2],4.44
same,IC50,[2],18.1 ± 1.73 µM
"C=C(C)C1CCC2(C)CCC3(C)C(CCC4C5(C)CCC(OC(=O)N6CCN(C(=O)CN7C(=O)SC(=Cc8ccc(C)cc8)C7=O)CC6)C(C)(C)C5CCC43C)C12 (centres unmarked) [Compound 9c, Lupeol-3-[(1-Piperazinyl)-2]-5-(4-Methylbenzylidene)-2,4-Thiazolidinedione]",IC50,human hepatic LO2 cells,65.1 ± 0.93 µM
same,IC50,[1]; 48 h,16.3 ± 0.76 µM
same,IC50,human lung cancer A549,12.7 ± 0.68 µM
same,SI (selectivity index),[2],4.14
same,IC50,[2],15.7 ± 1.52 µM
"C=C(C)C1CCC2(C)CCC3(C)C(CCC4C5(C)CCC(OC(=O)N6CCN(C(=O)CN7C(=O)SC(=Cc8ccc(C(C)(C)C)cc8)C7=O)CC6)C(C)(C)C5CCC43C)C12 (centres unmarked) [Compound 9d, Lupeol-3-[(1-Piperazinyl)-4]-5-(4-Tert-Butylphenyl)-2,4-Thiazolidinedione]",IC50,human hepatic LO2 cells,42.2 ± 1.28 µM
same,IC50,[1]; 48 h,18.1 ± 1.93 µM
same,IC50,human lung cancer A549,11.7 ± 0.75 µM
same,SI (selectivity index),[2],4.43
same,IC50,[2],9.52 ± 0.61 µM
"C=C(C)C1CCC2(C)CCC3(C)C(CCC4C5(C)CCC(OC(=O)N6CCN(C(=O)CN7C(=O)SC(=Cc8ccccc8OC)C7=O)CC6)C(C)(C)C5CCC43C)C12 (centres unmarked) [Compound 9e, Lupeol-3-[(1-Piperazinyl)-4]-5-(2-Methoxybenzylidene)-2,4-Thiazolidinedione]",IC50,human hepatic LO2 cells,63.3 ± 1.14 µM
same,IC50,[1]; 48 h,18.6 ± 1.27 µM
same,IC50,human lung cancer A549,10.4 ± 0.38 µM
same,SI (selectivity index),[2],3.83
same,IC50,[2],16.5 ± 1.26 µM
"C=C(C)C1CCC2(C)CCC3(C)C(CCC4C5(C)CCC(OC(=O)N6CCN(C(=O)CN7C(=O)SC(=Cc8ccc(OC)c(OC)c8OC)C7=O)CC6)C(C)(C)C5CCC43C)C12 (centres unmarked) [Compound 9f, Lupeol-3-[(1-Piperazinyl)-4]-5-(2,3,4-Trimethoxybenzylidene)-2,4-Thiazolidinedione]",IC50,human hepatic LO2 cells,56.1 ± 0.77 µM
same,IC50,[1]; 48 h,9.19 ± 0.46 µM
same,IC50,human lung cancer A549,9.24 ± 0.48 µM
same,SI (selectivity index),[2],5.19
same,IC50,[2],10.8 ± 0.45 µM
"C=C(C)C1CCC2(C)CCC3(C)C(CCC4C5(C)CCC(OC(=O)N6CCN(C(=O)CN7C(=O)SC(=Cc8ccco8)C7=O)CC6)C(C)(C)C5CCC43C)C12 (centres unmarked) [Compound 9g, Lupeol-3-[(1-Piperazinyl)-4]-5-(2-Furanylmethylene)-2,4-Thiazolidinedione]",IC50,human hepatic LO2 cells,62.77 ± 0.62 µM
same,IC50,[1]; 48 h,12 ± 0.75 µM
same,IC50,human lung cancer A549,9.91 ± 0.42 µM
same,SI (selectivity index),[2],4.19
same,IC50,[2],15 ± 0.74 µM
"C=C(C)C1CCC2(C)CCC3(C)C(CCC4C5(C)CCC(OC(=O)N6CCN(C(=O)CN7C(=O)SC(=Cc8cccs8)C7=O)CC6)C(C)(C)C5CCC43C)C12 (centres unmarked) [Compound 9h, Lupeol-3-[(1-Piperazinyl)-4]-5-(2-Thienylmethylene)-2,4-Thiazolidinedione]",IC50,human hepatic LO2 cells,68.9 ± 1.19 µM
same,IC50,[1]; 48 h,13.8 ± 0.58 µM
same,IC50,human lung cancer A549,16.4 ± 1.69 µM
same,SI (selectivity index),[2],4.50
same,IC50,[2],15.3 ± 0.98 µM
"C=C(C)C1CCC2(C)CCC3(C)C(CCC4C5(C)CCC(OC(=O)N6CCN(C(=O)CN7C(=O)SC(=CC(C)C)C7=O)CC6)C(C)(C)C5CCC43C)C12 (centres unmarked) [Compound 9i, Lupeol-3-[(1-Piperazinyl)-4]-5-(2-Methylpropylidene)-2,4-Thiazolidinedione]",IC50,human hepatic LO2 cells,35.4 ± 0.72 µM
same,IC50,[1]; 48 h,20.1 ± 1.59 µM
same,IC50,human lung cancer A549,13.8 ± 0.84 µM
same,SI (selectivity index),[2],5.12
same,IC50,[2],6.91 ± 0.31 µM
"C=C(C)C1CCC2(C)CCC3(C)C(CCC4C5(C)CCC(OC(=O)NCCNC(=O)CN6C(=O)SC(=Cc7ccc(F)cc7)C6=O)C(C)(C)C5CCC43C)C12 (centres unmarked) [Compound 12a, Lupeol-3-[(1-Ethylenediaminyl)-4]-5-(4-Fluorobenzylidene)-2,4-Thiazolidinedione]",IC50,human hepatic LO2 cells,71.03 ± 0.57 µM
same,IC50,[1]; 48 h,16.8 ± 1.29 µM
same,IC50,human lung cancer A549,10.5 ± 0.56 µM
same,SI (selectivity index),[2],4.30
same,IC50,[2],16.5 ± 0.54 µM
"C=C(C)C1CCC2(C)CCC3(C)C(CCC4C5(C)CCC(OC(=O)NCCNC(=O)CN6C(=O)SC(=Cc7ccc(Cl)cc7)C6=O)C(C)(C)C5CCC43C)C12 (centres unmarked) [Compound 12b, Lupeol-3-[(1-Ethylenediaminyl)-4]-5-(4-Chlorobenzylidene)-2,4-Thiazolidinedione]",IC50,human hepatic LO2 cells,76.87 ± 0.69 µM
same,IC50,[1]; 48 h,19.1 ± 1.63 µM
same,IC50,human lung cancer A549,17.1 ± 1.28 µM
same,SI (selectivity index),[2],4.35
same,IC50,[2],17.7 ± 0.79 µM
"C=C(C)C1CCC2(C)CCC3(C)C(CCC4C5(C)CCC(OC(=O)NCCNC(=O)CN6C(=O)SC(=Cc7ccc(C)cc7)C6=O)C(C)(C)C5CCC43C)C12 (centres unmarked) [Compound 12c, Lupeol-3-[(1-Ethylenediaminyl)-2]-5-(4-Methylbenzylidene)-2,4-Thiazolidinedione]",IC50,human hepatic LO2 cells,40.68 ± 0.31 µM
same,IC50,[1]; 48 h,14.3 ± 0.78 µM
same,IC50,human lung cancer A549,13.4 ± 0.79 µM
same,SI (selectivity index),[2],3.79
same,IC50,[2],10.7 ± 0.12 µM
C=C(C)[C@@H]1CC[C@]2(C)CC[C@]3(C)[C@H](CC[C@@H]4[C@@]5(C)CC[C@H](O)C(C)(C)[C@@H]5CC[C@]43C)[C@@H]12 [Lupeol],IC50,"[1]; Homo sapiens, MCF7, 48 h",62 ± 1.79 µM
same,IC50,"[2]; Homo sapiens, HepG2",43.6 ± 1.37 µM
